For experiment [1], the target named is T1, Cannabinoid CB1 Receptor (Homo sapiens, UniProt P21554).
T1 construct: expressed in transfected cells; semi-purified membrane pellet
Briefly: Binding assay, cannabinoid CB1 receptor ([3H]-CP-55,940 displacement, SK-N-MC cell membranes). Particulars: for inhibition at 0.2 µM: read-out: Cannabinoid CB1 Receptor Binding, percent inhibition.

In experiment [2] the target is T2, Cannabinoid CB2 Receptor (Homo sapiens, UniProt P34972).
T2 construct: expressed in transfected cells; semi-purified membrane pellet
T2 sequence (P34972 whole entry): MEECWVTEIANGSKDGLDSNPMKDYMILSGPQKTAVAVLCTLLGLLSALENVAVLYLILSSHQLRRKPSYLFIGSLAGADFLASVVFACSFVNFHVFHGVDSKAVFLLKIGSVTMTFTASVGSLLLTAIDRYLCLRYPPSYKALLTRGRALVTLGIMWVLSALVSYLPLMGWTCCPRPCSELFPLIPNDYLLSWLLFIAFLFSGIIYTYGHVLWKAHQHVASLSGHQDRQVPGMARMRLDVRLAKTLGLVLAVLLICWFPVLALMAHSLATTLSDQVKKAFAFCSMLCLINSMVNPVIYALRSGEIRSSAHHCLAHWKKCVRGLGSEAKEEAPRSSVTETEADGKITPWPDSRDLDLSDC
Briefly: Binding assay, cannabinoid CB2 receptor ([3H]-CP-55,940 displacement, SK-N-MC cell membranes). The note with it: test concentration of 0.2 μM, human CB2 in SK-N-MC membranes; for inhibition at 0.2 µM: read-out: Cannabinoid CB2 Receptor Binding, percent inhibition. Summed up:
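Membranes from SK-N-MC cells stably expressing human CB2 were incubated 90 min at 30 °C with 0.2 nM [3H]-CP-55,940 in Tris buffer, pH 7.5, with BSA; 10 uM WIN 55,212 defined non-specific binding. Filter-bound counts gave IC50 by linear regression, or % inhibition at 0.2 μM.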

The mark [3] stands for this setting: test concentration of 0.2 μM, human CB1 in SK-N-MC membranes.

Where two headings read alike, the source gives them in different places.

T1 sequence (P21554 whole entry): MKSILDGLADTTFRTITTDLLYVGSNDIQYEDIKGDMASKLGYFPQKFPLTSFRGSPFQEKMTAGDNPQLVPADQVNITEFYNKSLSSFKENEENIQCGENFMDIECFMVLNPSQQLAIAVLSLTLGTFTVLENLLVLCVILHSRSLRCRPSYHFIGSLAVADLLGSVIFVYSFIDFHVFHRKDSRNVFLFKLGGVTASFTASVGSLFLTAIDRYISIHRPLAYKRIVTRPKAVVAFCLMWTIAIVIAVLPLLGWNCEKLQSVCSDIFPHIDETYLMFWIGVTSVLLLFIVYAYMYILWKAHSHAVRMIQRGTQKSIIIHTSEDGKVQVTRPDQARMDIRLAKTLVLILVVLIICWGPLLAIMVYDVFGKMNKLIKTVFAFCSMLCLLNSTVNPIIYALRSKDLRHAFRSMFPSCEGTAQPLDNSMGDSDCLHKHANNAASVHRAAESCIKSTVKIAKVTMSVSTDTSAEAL

For orientation: inhibition means how much of the control response was suppressed. Regarding `C[C@@H](NC(=O)c1nn(-c2ccc(Cl)cc2Cl)c2c1COCC2Cc1ccc(F)cc1)c1ccccc1` (stereo partly drawn) [Cpd 24, 1-(2,4-dichloro-phenyl)-7-(4-fluoro-benzyl)-1,4,6,7-tetrahydro-pyrano[4,3-c]pyrazole-3-carboxylic acid [(R)-1-phenyl-ethyl]-amide], the values for the inhibition at 0.2 µM in experiment [1] (setting [3]) and in experiment [2] were 66% and 13%, respectively.

What is called IC50 is the point on the concentration scale where inhibition reaches its midpoint. `C[C@@H](NC(=O)c1nn(-c2ccc(Cl)cc2Cl)c2c1COC/C2=C\c1ccsc1)c1ccccc1` [Cpd 40, (7Z)-1-(2,4-dichloro-phenyl)-7-thiophen-3-ylmethylene-1,4,6,7-tetrahydro-pyrano[4,3-c]pyrazole-3-carboxylic acid [(R)-1-phenyl-ethyl]-amide] came in with an IC50 in experiment [1] of 10 nM. Moreover, the inhibition at 0.2 µM is 84% in experiment [1] and 21% in experiment [2].

As for `C[C@@H](NC(=O)c1nn(-c2ccc(Cl)cc2Cl)c2c1COC/C2=C\c1ccsc1)C1CCCCC1` [Cpd 39, (7Z)-1-(2,4-dichloro-phenyl)-7-thiophen-3-ylmethylene-1,4,6,7-tetrahydro-pyrano[4,3-c]pyrazole-3-carboxylic acid [(R)-1-cyclohexyl-ethyl]-amide], in experiment [1], the IC50 was 20 nM and the inhibition at 0.2 µM stood at 84%. Moreover, the inhibition at 0.2 µM in experiment [2] is 13%.

Molecule `O=C(NN1CC2CCCC2C1)c1nn(-c2ccc(Cl)cc2Cl)c2c1COC/C2=C\c1ccc(Cl)s1` (stereo not shown) [Cpd 56, (7Z)-7-(5-chloro-thiophen-2-ylmethylene)-1-(2,4-dichloro-phenyl)-1,4,6,7-tetrahydro-pyrano[4,3-c]pyrazole-3-carboxylic acid (hexahydro-cyclopenta[c]pyrrol-2-yl)-amide] returned an IC50 in experiment [1] of 40 nM. Further, the inhibition at 0.2 µM in experiment [1] (setting [3]) stood at 74%; in experiment [2], 0%.

With `C[C@H](NC(=O)c1nn(-c2ccc(Cl)cc2Cl)c2c1COC/C2=C\c1ccc(Cl)o1)C1CCCCC1` [Cpd 63, (7Z)-7-(5-chloro-furan-2-ylmethylene)-1-(2,4-dichloro-phenyl)-1,4,6,7-tetrahydro-pyrano[4,3-c]pyrazole-3-carboxylic acid [(S)-1-cyclohexyl-ethyl]-amide], the inhibition at 0.2 µM in experiment [1] worked out at 25%; in experiment [2] it was 10%.

As to `O=C(NN1CC2CCCC2C1)c1nn(-c2ccc(Cl)cc2Cl)c2c1COCC2Cc1ccc(F)cc1` (stereo not shown) [Cpd 22, 1-(2,4-dichloro-phenyl)-7-(4-fluoro-benzyl)-1,4,6,7-tetrahydro-pyrano[4,3-c]pyrazole-3-carboxylic acid (hexahydro-cyclopenta[c]pyrrol-2-yl)-amide], the inhibition at 0.2 µM in experiment [1] (setting [3]) is 66%; in experiment [2] it was 18%.

Regarding `C[C@H](NC(=O)c1nn(-c2ccc(Cl)cc2Cl)c2c1COC/C2=C\c1ccc(Cl)s1)C1CCCCC1` [Cpd 50, (7Z)-7-(5-chloro-thiophen-2-ylmethylene)-1-(2,4-dichloro-phenyl)-1,4,6,7-tetrahydro-pyrano[4,3-c]pyrazole-3-carboxylic acid [(S)-1-cyclohexyl-ethyl]-amide], the inhibition at 0.2 µM in experiment [1] (setting [3]) came to 34%; in experiment [2], 2%.

On to `CC1CCCC(C)N1NC(=O)c1nn(-c2ccc(Cl)cc2Cl)c2c1COC/C2=C\c1cccs1` (stereo not shown) [Cpd 37, (7Z)-1-(2,4-dichloro-phenyl)-7-thiophen-2-ylmethylene-1,4,6,7-tetrahydro-pyrano[4,3-c]pyrazole-3-carboxylic acid (2,6-dimethyl-piperidin-1-yl)-amide], for which the inhibition at 0.2 µM in experiment [1] (setting [3]) stood at 61%; in experiment [2], 20%.

With `O=C(N[C@@H]1CCC[C@H]1O)c1nn(-c2ccc(Cl)cc2Cl)c2c1COC/C2=C\c1ccc(F)cc1` [Cpd 3, (7Z)-1-(2,4-dichloro-phenyl)-7-(4-fluoro-benzylidene)-1,4,6,7-tetrahydro-pyrano[4,3-c]pyrazole-3-carboxylic acid [(1R,2R)-2-hydroxy-cyclopentyl]-amide], the values for the inhibition at 0.2 µM in experiment [1] (setting [3]) and in experiment [2] were 32% and 0%, respectively.

`O=C(NN1CCN(CCO)CC1)c1nn(-c2ccc(Cl)cc2Cl)c2c1COC/C2=C\c1ccc(F)cc1` [Cpd 31, (7Z)-1-(2,4-dichloro-phenyl)-7-(4-fluoro-benzylidene)-1,4,6,7-tetrahydro-pyrano[4,3-c]pyrazole-3-carboxylic acid [4-(2-hydroxy-ethyl)-piperazin-1-yl]-amide]: the inhibition at 0.2 µM was 10% in experiment [1] (setting [3]) and 15% in experiment [2].

On to `C[C@@H](NC(=O)c1nn(-c2ccc(Cl)cc2Cl)c2c1COC/C2=C\c1ccc(Cl)o1)C1CCCCC1` [Cpd 62, (7Z)-7-(5-chloro-furan-2-ylmethylene)-1-(2,4-dichloro-phenyl)-1,4,6,7-tetrahydro-pyrano[4,3-c]pyrazole-3-carboxylic acid [(R)-1-cyclohexyl-ethyl]-amide], for which, in experiment [1], the IC50 turned out to be 30 nM and the inhibition at 0.2 µM was determined as 74%. The inhibition at 0.2 µM in experiment [2] is 17%.

For `C[C@@H](NC(=O)c1nn(-c2ccc(Cl)cc2Cl)c2c1COC/C2=C\c1cccs1)C1CCCCC1` [Cpd 33, (7Z)-1-(2,4-dichloro-phenyl)-7-thiophen-2-ylmethylene-1,4,6,7-tetrahydro-pyrano[4,3-c]pyrazole-3-carboxylic acid [(R)-1-cyclohexyl-ethyl]-amide], the IC50 in experiment [1] worked out at 10 nM. The inhibition at 0.2 µM in experiment [1] (setting [3]) amounted to 88%; in experiment [2] it was 15%.

In the case of `CN1CCN(NC(=O)c2nn(-c3ccc(Cl)cc3Cl)c3c2COC/C3=C\c2ccc(F)cc2)CC1` [Cpd 30, (7Z)-1-(2,4-dichloro-phenyl)-7-(4-fluoro-benzylidene)-1,4,6,7-tetrahydro-pyrano[4,3-c]pyrazole-3-carboxylic acid (4-methyl-piperazin-1-yl)-amide], the inhibition at 0.2 µM stood at 3% in experiment [1] (setting [3]) and 0% in experiment [2].

The molecule `C[C@@H](NC(=O)c1nn(-c2ccc(Cl)cc2Cl)c2c1COC/C2=C\c1ccc(Cl)s1)c1ccccc1` [Cpd 49, (7Z)-7-(5-chloro-thiophen-2-ylmethylene)-1-(2,4-dichloro-phenyl)-1,4,6,7-tetrahydro-pyrano[4,3-c]pyrazole-3-carboxylic acid [(R)-1-phenyl-ethyl]-amide] registered a half-maximal inhibitory concentration (IC50) in experiment [1] of 20 nM. Also, the inhibition at 0.2 µM stood at 84% in experiment [1] (setting [3]) and 10% in experiment [2].

Take `O=C(NN1CCCC1)c1nn(-c2ccc(Cl)cc2Cl)c2c1COC/C2=C\c1ccc(F)cc1` [Cpd 9, (7Z)-1-(2,4-dichloro-phenyl)-7-(4-fluoro-benzylidene)-1,4,6,7-tetrahydro-pyrano[4,3-c]pyrazole-3-carboxylic acid pyrrolidin-1-ylamide]: the inhibition at 0.2 µM in experiment [1] (setting [3]) was 58%; in experiment [2], 0%.

For the molecule `O=C(NN1CCCCCC1)c1nn(-c2ccc(Cl)cc2Cl)c2c1COC/C2=C\c1ccc(Cl)o1` [Cpd 65, (7Z)-7-(5-chloro-furan-2-ylmethylene)-1-(2,4-dichloro-phenyl)-1,4,6,7-tetrahydro-pyrano[4,3-c]pyrazole-3-carboxylic acid azepan-1-ylamide], the IC50 in experiment [1] is 70 nM. Besides, the inhibition at 0.2 µM in experiment [1] (setting [3]) stood at 71%; in experiment [2], 9%.

For the molecule `O=C(NN1CCCCC1)c1nn(-c2ccc(Cl)cc2Cl)c2c1COC/C2=C\c1cccs1` [Cpd 35, (7Z)-1-(2,4-dichloro-phenyl)-7-thiophen-2-ylmethylene-1,4,6,7-tetrahydro-pyrano[4,3-c]pyrazole-3-carboxylic acid piperidin-1-ylamide], the figures for the inhibition at 0.2 µM in experiment [1] (setting [3]) and in experiment [2] were 68% and 12%, respectively.

On to `C[C@H](NC(=O)c1nn(-c2ccc(Cl)cc2Cl)c2c1COC/C2=C\c1ccc(Cl)o1)c1ccccc1` [Cpd 70, (7Z)-7-(5-chloro-furan-2-ylmethylene)-1-(2,4-dichloro-phenyl)-1,4,6,7-tetrahydro-pyrano[4,3-c]pyrazole-3-carboxylic acid [(S)-1-phenyl-ethyl]-amide], for which the inhibition at 0.2 µM in experiment [1] (setting [3]) was found to be 41%; in experiment [2], 15%.

As for `O=C(NN1CCCC1)c1nn(-c2ccc(Cl)cc2Cl)c2c1COC/C2=C\c1cccs1` [Cpd 34, (7Z)-1-(2,4-dichloro-phenyl)-7-thiophen-2-ylmethylene-1,4,6,7-tetrahydro-pyrano[4,3-c]pyrazole-3-carboxylic acid pyrrolidin-1-ylamide], the inhibition at 0.2 µM in experiment [1] (setting [3]) was determined as 54%; in experiment [2], 7%.

Take `O=C(NN1CC2CCCC2C1)c1nn(-c2ccc(Cl)cc2Cl)c2c1COC/C2=C\c1ccc(F)cc1` (stereo not shown) [Cpd 17, (7Z)-1-(2,4-dichloro-phenyl)-7-(4-fluoro-benzylidene)-1,4,6,7-tetrahydro-pyrano[4,3-c]pyrazole-3-carboxylic acid (hexahydro-cyclopenta[c]pyrrol-2-yl)-amide]: the IC50 in experiment [1] was 20 nM. In addition, the inhibition at 0.2 µM in experiment [1] (setting [3]) came to 99%; in experiment [2], 29%.

On to `O=C(NN1CCCC1)c1nn(-c2ccc(Cl)cc2Cl)c2c1COC/C2=C\c1ccc(Cl)o1` [Cpd 72, (7Z)-7-(5-chloro-furan-2-ylmethylene)-1-(2,4-dichloro-phenyl)-1,4,6,7-tetrahydro-pyrano[4,3-c]pyrazole-3-carboxylic acid pyrrolidin-1-ylamide], for which the values for the inhibition at 0.2 µM in experiment [1] (setting [3]) and in experiment [2] were 48% and 8%, respectively.

In the case of “azepan-1-yl-[1-(2,4-dichloro-phenyl)-7-(4-fluoro-benzyl)-1,4,6,7-tetrahydro-pyrano[4,3-c]pyrazol-3-yl]-methanone [Cpd 25]”, in experiment [1] (setting [3]), the “Cannabinoid CB1 Receptor Binding, percent inhibition” value was 50%. Also, the “Cannabinoid CB2 Receptor Binding, percent inhibition” value in experiment [2] turned out to be 0%.

The values are drawn from US20100069341A1, “TETRAHYDRO-PYRANOPYRAZOLE CANNABINOID MODULATORS” (priority 2005, published 2010).
